The data set deals with T1, COX-2 (Mus musculus, UniProt Q05769).
T1 construct: from tissue; host or cells: brain of living wild-type mice (Strain C57BL/6J)
T1 sequence (Q05769 18-604): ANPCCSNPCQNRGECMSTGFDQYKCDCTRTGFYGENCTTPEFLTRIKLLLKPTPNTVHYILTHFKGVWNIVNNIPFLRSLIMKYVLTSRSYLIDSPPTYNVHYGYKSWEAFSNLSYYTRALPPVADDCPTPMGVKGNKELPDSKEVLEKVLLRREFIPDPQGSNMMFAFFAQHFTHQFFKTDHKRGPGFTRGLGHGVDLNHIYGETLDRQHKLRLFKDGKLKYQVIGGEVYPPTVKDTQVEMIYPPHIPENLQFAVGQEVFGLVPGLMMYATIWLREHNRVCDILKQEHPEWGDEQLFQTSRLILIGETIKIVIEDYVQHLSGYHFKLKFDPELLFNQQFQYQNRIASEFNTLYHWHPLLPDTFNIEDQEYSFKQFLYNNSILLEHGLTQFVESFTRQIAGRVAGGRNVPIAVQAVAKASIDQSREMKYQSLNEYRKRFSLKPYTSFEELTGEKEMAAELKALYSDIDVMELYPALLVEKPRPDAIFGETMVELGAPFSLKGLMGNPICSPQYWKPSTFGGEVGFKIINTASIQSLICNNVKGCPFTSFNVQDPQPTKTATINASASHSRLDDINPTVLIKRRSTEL
Description: PET imaging of wild-type mice (controls). To be noted: WT mice (n = 4). In kind it is in vivo. The source says: We performed additional validation of [^11C]BRD1158 through in vivo PET imaging of an hCOX-2 transgenic mouse line (Figure 3), which overexpressed human COX-2 primarily in neurons (Strain No. 010703, Jackson Laboratories). […] While we did perform contralateral sham (control virus) injections in the AAV rats to assess potential injection confounds, as COX-2 is part of the injury and inflammation response, it was important to validate in a model naïve to brain insult to mitigate how aspects of the AAV rat experimental design could have misled our interpretations of tracer specific binding.
In accordance with Massachusetts General Hospital Institutional Animal Care and Use Committee (IACUC) protocols, Sprague Dawley rats (300-500g, Charles River Laboratories), wildtype mice (Strain C57BL/6J), and human Thy-1-COX-2 transgenic line 303 mice (Strain 010703, Jackson Laboratories) were used in these studies. All animals were housed in a standard animal facility with access to conventional rodent food and water ad libitum and a 12 -hour day/night schedule. All animals were allowed to acclimate before any experime ntal procedures. Only male animals were used for imaging experiments .
Animals were induced under anesthesia using 1 -3% isoflurane in a carrier of 1.0 -1.5 L/min oxygen.
Maintenance of isoflurane depended on procedure and species, rats 2 -3% and mice 1-2%. Rats undergoing surgeries had higher isoflurane maintenance at 3 -4%. After induction, the animals’ body temperatures were regulated using a support heating pad or fan throughout all experiments.
Respiratory rates and body temperature were monitored through all imaging and surgical procedures, generally using a respiratory pad and rectal probe. Injections were made through the lateral tail vein.
Rats were cannulated with an IV extension using a 60 in, 0.3 mL volume IV extender (Smith Medical) and a 24 ga x 0.75 in IV catheter (McKesson). Mice were cannulated with Intramedic PE10 tubing (BD […]
Group 2 animals then […]

Take `[11CH3]S(=O)(=O)c1ccc(-c2cccc(NCc3ccoc3)n2)cc1` [[^11C]BRD1158]: the “SUV Average (9–21 min)” value (cerebellum) is recorded as 0.376 ± 0.02, the “SUV Average (9–21 min)” value (cortex) stood at 0.359 ± 0.04 and the “SUV Average (9–21 min)” value (striatum) is given as 0.385 ± 0.05.

The values above are taken from PMC11117721, “A Fast-Binding, Functionally Reversible, COX-2 Radiotracer for CNS PET Imaging” (ACS Central Science, 2024).
